Results: US9309187B2, “EP2 receptor agonists” (TAKEDA GMBH, priority 2012, dated 2016)

Experiments:
[1] = target: T1, human EP2 receptor (Homo sapiens, UniProt P43116); assay: EP2 binding assay (PGE2 displacement); conditions: recombinant human EP2 membranes, 1 nanoM [3H]-PGE2; reported as range bins; read-out: EP2 binding (PGE2 displacement) pIC50 (-log IC50) (converted)
T1 construct: purchased Millipore
Experimental: Method for Measuring Inhibition of PGE2 Binding to the Human Prostanoid Receptor EP2:
Human EP2 receptor equilibrium competition binding assays were performed according to Abramovitz et al. (M. Abramovitz et al. 2000, Biochimica et Biophysica Acta 1483: 285-293) in a final incubation volume of 100 microL in 50 milliM Bis-Tris, pH6.0 in 96-well plates. Radiolabelled Prostaglandin E2 (PGE2) (1 nanoM [^3H]-PGE2 purchased from Perkin Elmer) was added to the assay as competitive ligand. Test compounds stored as Dimethylsulfoxide (DMSO) stock solutions were added to the assay in serial dilutions in assay buffer while keeping the final DMSO concentration equal in each sample. The reaction was initiated by addition of membrane proteins harbouring human EP2 receptor (ChemiSCREEN™ membrane preparation recombinant human EP2 prostanoid receptor that was purchased by Millipore). Total binding was determined in the absence of test compound or PGE2 and non-specific binding was determined in the presence of 1 microM PGE2. Incubations were conducted for 60 minutes at room temperature until equilibrium was reached and terminated by filtration through GF/B filter (Perkin Elmer) prewetted with 0.3% PEI solution. Unbound radiolabelled PGE2 was removed by 8 wash cycles with the same buffer under ice-cold conditions and the filters containing the residual radioactivity were dried for 60 minutes at 60° C. In order to measure the filter bound radioactivity, 40 microL microscint (scintillation liquid) was added to each filter and the chemiluminescence was determined by TopCount-NTX™. The specific binding was calculated by subtracting non-specific binding from each sample. Percent inhibition by test compounds was calculated based on specific binding without test compound. Each sample was measured in triplicates per experiment and for the calculation of the pIC50 at least 2 independent experiments were performed. Determination of half maximal inhibiting concentration (IC50) was performed with GraphPad Prism Software.
(§1) The numbers of the compounds correspond to the examples numbers.
EP2 Binding Assay (PGE2 Displacement): pIC50 Values

[2] = test system: normal human lung fibroblasts (NHLF); assay: Inhibition of the proliferation of normal human lung fibroblasts (NHLF); assay type: cell-based; conditions: Fibroblast, IL1β (50 pg/mL) and bFGF (10 ng/mL) for 36 h, methyl-3H thymidine incorporation, read-out: inhibition of NHLF proliferation pIC50 (-log IC50) (converted)
Experimental: Method for Determination of the Inhibition of the Proliferation of Normal Human Lung Fibroblasts (NHLF)
16,500 NHLF-cells were seeded in each well of 24-well cell culture plates and were subsequently cultivated for 3.5 days. Thereafter cell culture medium was replaced by non-serum containing medium and cells were starved for 24 h. Subsequently a serial dilution of test compound was added and cells were stimulated with IL1β (Interleukine 1 beta) (50 pg/mL) and bFGF (basic Fibroblast Growth Factor) (10 ng/mL) for 36 h. For DNA-synthesis (Desoxyribonucleic Acid-synthesis) measurement methyl-^3H thymidine was added to the cells for the last 7 h of the 36 h incubation period. Thereafter the radioactive labeled cells were processed for measurement of the incorporated radioactivity as a marker for DNA-synthesis and thus proliferation. For that purpose the cell culture supernatants were removed, adherent cells washed once with ice-cold PBS and fixed in ice-cold 10% (w/v) trichloroacetic acid (TCA) for 30 min. Thereafter TCA was discarded and the DNA of the fixed cells hydrolyzed by administering 0.2 N NaOH. The radioactivity containing NaOH was then transferred into scintillation vials, scintillation liquid added and radioactivity was counted (L56500, Beckman Counter). Test compounds were dissolved in DMSO to a stock concentration of 10 mM. After administration of the compound to the cell cultures the final DMSO concentration was 0.1%. Inhibition of proliferation by the various concentrations of test compound was calculated related to 0.1% DMSO-treated control cells.
as §1

[3] = test system: total leukocyte and neutrophil counts in bronchoalveolar lavage fluid; assay: In vivo assay: LPS-induced pulmonary inflammation model in rats; parameters: species or system Sprague Dawley rats; conditions: Rattus norvegicus, po; p.o. 1 h prior to LPS aerosol; BAL cell counts 4 h after LPS
Experimental: In Vivo Assay: LPS-Induced Pulmonary Inflammation Model in Rats
Exposure of rats to aerosolised lipopolysaccharide (LPS) causes a pulmonary mainly neutrophilic inflammation, which can be assessed by bronchoalveolar lavage (BAL). LPS-induced pulmonary inflammation models are robust and are commonly used for the evaluation of test compounds modulating the immediate immune response. Selective EP2 agonists are administered per oral 1 h prior nose-only LPS challenge in rats. The anti-inflammatory activity of the selective EP2 agonists is assessed based on pulmonary total leukocyte and neutrophil counts in the bronchoalveolar lavage fluid 4 h after LPS exposure.
Male Sprague Dawley rats weighing 250-300 g were used. Rats were delivered 1 week prior to the experiments and hadfree access to water and food.
The test compound was mixed with 1.33% polyethylenglycol 400 (PEG400, Merck, Darmstadt, Germany) and subsequently suspended in 2% methocel solution (hypromellose, Sigma, Steinheim, Germany) containing Antifoam C Emulsion (Sigma, Steinheim, Germany, 0.1 mL/15 mL) using a mixing device (ULTRA-TURRAX T8 basic, VDI12, VWR International GmbH). The aimed doses were prepared by dilution series from the stock suspension, which was prepared for the administration of the highest dose in each experiment.
The administered volume of the compound suspension was 10 mL/kg. On day of the experiment the rat body weights were documented to calculate the volume to be administered. LPS challenged and unchallenged control animals received compound-free vehicle solution as placebo. Test compounds and vehicle were administered by oral gavage 1 h prior to LPS challenge.
Conscious and restrained animals were connected to a nose-only exposure system (CR equipment SA, Tannay, Switzerland) and were exposed to the LPS aerosol for 30 min. The LPS-containing aerosol was generated using a compressed air driven medication nebulizer device (Pari LC Sprint Star, Pari GmbH, Starnberg, Germany). The LPS solution (E. coli, Serotype 055B5, Sigma-Aldrich, 1 mg/ml diluted in PBS) was prepared 30 minutes in advance. The aerosol was dispersed and transported to the exposure tower by a sheath air flow of 6001/h. All rats except negative controls were exposed to LPS.
4 hours after LPS challenge, animals were anesthetised by isoflurane and scarified by cervical dislocation. BALs were performed. For the BAL the trachea was exposed and cannulated, followed by gently lavaging the lungs two times in situ with 4 ml PBS buffer supplemented with 0.5% Bovine Serum Albumin (Serve, Darmstadt, Germany).
Determination of total leukocyte and neutrophil counts in BALF was performed with an automated leukocyte differentiation system (XT-2000iV, Sysmex, Norderstedt, Germany).
The baseline correction was done for each sample according to the formula: baseline-corrected cell count value=cell count−median (negative control group)
Suppression of LPS-induced total cell and neutrophil influx into the lungs was calculated in % using the medians of the cell counts of each treatment group in relation to the control groups according to the formula: % effect=(Y−K)/K*100 • With defining: • Y=median of the baseline-corrected compound treated group • K=median of the baseline-corrected vehicle treated group
Statistical analysis was performed on the primary cell count data using One-Way ANOVA and Dunnett's Multiple Comparison test vs. positive control.

T1 sequence (P43116 whole entry): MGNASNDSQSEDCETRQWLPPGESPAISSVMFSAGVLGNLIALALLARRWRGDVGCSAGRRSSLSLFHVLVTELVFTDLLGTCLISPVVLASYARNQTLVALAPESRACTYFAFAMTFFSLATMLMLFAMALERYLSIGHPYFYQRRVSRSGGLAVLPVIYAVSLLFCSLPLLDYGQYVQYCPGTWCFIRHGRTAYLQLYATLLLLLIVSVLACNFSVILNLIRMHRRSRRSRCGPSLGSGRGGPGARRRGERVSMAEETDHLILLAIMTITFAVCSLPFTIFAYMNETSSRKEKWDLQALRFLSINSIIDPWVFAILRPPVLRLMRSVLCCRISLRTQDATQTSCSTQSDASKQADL

Row | SMILES | IC50 [1] [nM] | IC50 [2] [nM] | ED50 [3] [mg/kg]
1 | O=C(O)/C=C/c1cccc(NC(=O)c2cc(-c3ccccc3)cc3ccccc23)c1 [Example 1, (2E)-3-(3-{[(3-phenylnaphthalen-1-yl)carbonyl]amino}phenyl)prop-2-enoic acid] | 1.26 to 10 | 1.58 to 15.8 | 0.1 to 2
2 | O=C(O)/C=C/c1ccc(F)c(NC(=O)c2cc(-c3ccccc3)cc3ccccc23)c1 [Example 2, (2E)-3-(4-fluoro-3-{[(3-phenylnaphthalen-1-yl)carbonyl]amino}phenyl)prop-2-enoic acid] | 1.26 to 10 | 1.58 to 15.8 | 0.1 to 2
3 | O=C(O)/C=C/c1ccc(Cl)c(NC(=O)c2cc(-c3ccccc3)cc3ccccc23)c1 [Example 3, (2E)-3-(4-chloro-3-{[(3-phenylnaphthalen-1-yl)carbonyl]amino}phenyl)prop-2-enoic acid] | 1.26 to 10 |  | 0.1 to 2
4 | O=C(O)/C=C/c1ccc(F)c(NC(=O)c2cc(-c3ccccc3F)cc3ccccc23)c1 [Example 9, (2E)-3-{3-[({3-[2-fluorophenyl]naphthalen-1-yl}carbonyl)amino]-4fluorophenyl}prop-2-enoic acid] | 1.26 to 10 | 1.58 to 15.8 | 0.1 to 2
5 | O=C(O)/C=C/c1ccc(F)c(NC(=O)c2cc(-c3cccc(F)c3)cc3ccccc23)c1 [Example 10, (2E)-3-{3-[({3-[3-fluorophenyl]naphthalen-1-yl}carbonyl)amino]-4fluorophenyl}prop-2-enoic acid] | 1.26 to 10 | 1.58 to 15.8 | 0.1 to 2
